Assays:
Experiment in all cases: Stagewise adaptation on growth media poisoned with thiodicarb or bifenthrin; mortality rate
Format in all cases: cell-based
Beauveria bassiana = settings: for Resistant to: FINAL: final characteristics after selective process
Experimental: (§1) Strains of sulphur sulubilizer fungi, antagonist to some pathogens: • a) Paecilomyces sp. • b) Beauveria bassiana • c) Trichoderma harzianum • d) Metarhizium anisopliae Preparation for Stage Development 1. Glass material is sterilized in an autoclave. 2. The required amount of growth media is prepared with 3% rice broth (P/V), and 9% of a solution of molasses, sterilized at 121° C. for 15 minutes at a pressure of 15 lb. 3. Lethal dose (LD) applied to a hectare is established, for thiodicarb as well as bifenthrin. 10 Petri dishes are prepared with 0.1 LD of thiodicarb of bifenthrin. Dishes are incubated at 25° C. for 72 hours with cold light. 4. From the previous suspension with a known concentration, (107) the growth media is seeded with 1 ml, the pH adjustment is performed at 5.5 with a sterile 10 citric acid solution. 5. Stir at 110 rpm and 27 OC for 7 days. 6. The process is monitored controlling the variables, mainly the pH and biomass concentration, adjusting the pH to 5.5 during the entire process. 7. On the fourth day of the process, the foam formation is controlled with 1% soy oil and the stirring speed. Methodology a. Petri dishes are placed inside the laminar flow chamber along with the diluted samples, to seed microorganisms in the dishes, a one ml sample of the strain is taken with an automated pipette, 10^−1 and 10^−2 solutions are performed, and each solution is homogenized. b. Having the petri dishes with the sterile and cold growth media, it is homogenized with 6 right to left movements, 6 clockwise movements, 6 counterclockwise movements and 6 front to back movements over a flat horizontal surface until the inoculum is completely integrated into the media, stand until it solidifies and each dish is covered with parafilm to avoid contamination during incubation. c. Dishes with thiodicarb and Bifenthrin are placed inside the incubator at 25° C. for 72 hours with a cold light lamp. d. Inoculated dishes are incubated for 15 days, the product concentration impact is determined on mycelial growth, sporulation and germination (12 hours of incubation). e. The residual impact of the product is reviewed after 7 days in the malt agar, dextrose and PDA agar media, enriched with minerals. f. If there is no growth over 10%, the process is repeated until a mortality under 90% is obtained. g. […] After that, the suspension is stirred for 30 seconds in a Vortex tube mixer. The spore concentration is measured in a Newbawer Chamber and the results are reported in conidia per […]. i. From the 10 Petri dishes for each microorganism, the one with the lowest mortality rate is the one that will continue with the following study. j. The study is performed again using this percentage until coverage increases and so on, the addition of thiodicarb and bifenthrin is alternated with the LD in intervals of 0.1 LD; all these experiments have been designed with the experimental strains and a control. k. With the data obtained from the mycelial growth and sporulation, the percentage of inhibition of gradual growth is obtained, the data is transformed for its analysis with the expression 2 arc sin, and the sporulation through the equation Log 10(x+10). A two-way classification analysis of variance is applied and later the Turkey test is performed using a 5% probability.
(§2) For each species, stages analyzing times required to cover the entire field were performed. Once this time was determined, they were left to rest for 10 days to be later subject to the following protocol:
Stages begin with the conditions in its natural habitat: pH—7.0 a 7.5, Humidity: 30 to 40% and humidity is increased up to 70% and a Temperature from 28 to 30° C., maintained during all the research term. These conditions are the starting point to adapt the strain to thiodicarb (carbamate) and bifenthrin (pyrethroid). During all stages, we will be using a cold light lamp to adapt the microorganism to sunlight.

Metarhizium anisopliae = settings: for Resistant to: FINAL: final development characteristics
Experimental: as §1
(§3) For each species, stages analyzing times required to cover the entire field were performed. Once this time was determined, they were left to rest for 10 days to be later subject to the following protocol: […]

Paecilomyces sp. = system: Paecilomyces sp.
Experimental: Strains of sulphur sulubilizer fungi, antagonist to some pathogens: • a) Paecilomyces sp. • b) Beauveria bassiana • c) Trichoderma harzianum • d) Metarhizium anisopliae Preparation for Stage Development 1. Glass material is sterilized in an autoclave. 2. The required amount of growth media is prepared with 3% rice broth (P/V), and 9% of a solution of molasses, sterilized at 121° C. for 15 minutes at a pressure of 15 lb. 3. Lethal dose (LD) applied to a hectare is established, for thiodicarb as well as bifenthrin. 10 Petri dishes are prepared with 0.1 LD of thiodicarb of bifenthrin. Dishes are incubated at 25° C. for 72 hours with cold light. 4. […] The process is monitored controlling the variables, mainly the pH and biomass concentration, adjusting the pH to 5.5 during the entire process. […] Inoculated dishes are incubated for 15 days, the product concentration impact is determined on mycelial growth, sporulation and germination (12 hours of incubation). e. […] The spore concentration is measured in a Newbawer Chamber and the results are reported in conidia per square millimeter. i. […]
as §3

Trichoderma harzianum = system: Trichoderma harzianum
Experimental: as §1, §2
Procedures begin with the conditions in its natural habitat: Humidity: 30 to 40% and humidity is increased up to 70% and a Temperature from 28 to 30° C., maintained during all the research term. pH from 7.0 to 7.5. These conditions are the starting point to adapt the strain to thiodicarb and bifenthrin.

[1] = stages E-33 and E-34, 0.9 LD (0.00016 gr)
[2] = stages E-35 and E-36, 1 LD (0.00018 gr)
[3] = stages E-3 and E-4, 0.2 LD (0.000035 gr)
[4] = stages E-25 and E-26, 0.7 LD (0.00012 gr)
[5] = stages E-43 and E-44, 1.2 LD (0.00022 gr)
[6] = stages E-49 and E-50, 1.1 LD (0.00024 gr)
[7] = stages E-51 and E-52, 1.2 LD (0.00026 gr)

In the case of Cc1c(COC(=O)[C@@H]2[C@H](/C=C(\Cl)C(F)(F)F)C2(C)C)cccc1-c1ccccc1 (racemic) [bifenthrin, 2-methyl biphenyl-3-ilmetil(2)-(1RS,3RS)-3-(2-chlorine 3,3,3-trifluoropropene)-2,2-dimethyl-cyclo-propane-carboxylate], the “Resistant to: FINAL” value (Beauveria bassiana) was 1 LD of thiodicarb and the “Resistant to: FINAL” value (Metarhizium anisopliae) was 1.3 LD of.
CS/C(C)=N\OC(=O)N(C)SN(C)C(=O)O/N=C(\C)SC [thiodicarb] was tested, and the mortality rate (Paecilomyces sp.; [1]) was 8%, the mortality rate (Paecilomyces sp.; [2]) was 15% and the “Resistant to: FINAL” value (Beauveria bassiana) was 1 LD of thiodicarb. The mortality rate (Beauveria bassiana; stages E-1 and E-2, 0.1 LD (0.0000175 gr), 32% humidity) was 73%, the mortality rate (Beauveria bassiana; [3]) was 73-79% and the mortality rate (Beauveria bassiana; [4]) was 23%. For the same compound, the mortality rate (Beauveria bassiana; [2]) was 26%, the mortality rate (Beauveria bassiana; [5]) was 20% and the mortality rate (Beauveria bassiana; [6]) was 14%. It also gave a mortality rate (Beauveria bassiana; [7]) of 11%, a mortality rate (Trichoderma harzianum; stage E-1, 0.1 LD (0.0000175 gr), until day 68 of incubation) of 82% and a mortality rate (Trichoderma harzianum; stage E-2, 0.1 LD (0.0000175 gr)) of 85%. For the same compound, the mortality rate (Trichoderma harzianum; stages E-11 and E-12, 0.4 LD (0.000070 gr)) was 75%, the mortality rate (Trichoderma harzianum; stages E-19 and E-20, 0.6 LD (0.00011 gr)) was 66% and the mortality rate (Trichoderma harzianum; [4]) was 60%. For the same compound, the mortality rate (Trichoderma harzianum; [5]) was 18%, the mortality rate (Trichoderma harzianum; [6]) was 10% and the mortality rate (Trichoderma harzianum; [7]) was 8%. The “Resistant to: FINAL” value (Metarhizium anisopliae) was 1.3 LD of, the mortality rate (Metarhizium anisopliae; [3]) was 55% and the mortality rate (Metarhizium anisopliae; [1]) was 15%. For the same compound, the mortality rate (Metarhizium anisopliae; [2]) was 15%.
